Measured values from patent US6310247A, “7-aryl-6(Z)-heptatrienoic acid retinamides” (Hoffmann-LA Roche Inc., priority 1999, dated 2001).
Like-named read-outs stand apart in the source and are kept apart here.

Key:
ZR-75-1 cells = assay: Apoptosis: cell death detection by ELISA, ZR-75-1; format: cell-based, human; conditions: for fold induction at 1 µM / fold induction at 3.3 µM / fold induction at 10 µM: Homo sapiens, read-out: Fold induction of apoptosis compared to no drug control
Protocol: ER+ breast carcinoma, human (ZR-75-1) obtained from ATCC (CRL 1500), were grown in Gibco's RPMI 1640 media supplemented with sodium pyruvate, 10% FBS and 13 ng/mL gentamicin. Cells were incubated at 37° C., 4.5% CO2 and 95.5% humidified air.
(§1) 2. Apoptosis: Cell death detection by ELISA:
(§2) Compounds of formula 1 were tested for the ability to cause apoptosis as follows:
(§3) Cells and media were collected, cells were pelleted, resuspended in 100 μl lysis buffer (50 mM Tris-Cl (pH=8.0), 20 mM EDTA, 1% NP-40e) and incubated 30 minutes at 4° C. to lyse. Cell debris was spun down and an aliquot (30 μl) of the […] was removed for protein determination and stored at -20° C. An additional 280 μl of lysis buffer, was added, mixed thoroughly and spun down at 14,000 RPM for 10 minutes at 4° C. An aliquot was removed (180 μl) and the sample was stored at -20° C. until testing.
(§4) A commercially available apoptosis detection kit, obtained from Boehringer Mannheim (Cat. No. 1544-674), was used as per the directions provided with the kit (Cell Death Detection ELISA). However, the protocol was modified in that a 1:40 to 1:100 dilution of sample was prepared, rather than the recommended 1:10 dilution, due to the increase in cell number used to prepare the sample extract and the subsequent increase in ELISA reactivity. The assay measures apoptosis by quantifying the amount of nucleosomal fragmentation from the extracts of cells treated with the test compounds (samples). These nucleosomal fragments, generated by the activation of endonucleases, are a known downstream effector of apoptosis. Antihistone antibodies are used to fix any nucleosomal fragments in the sample to the well of the microtiter plates. The sample is then incubated with anti-DNA antibodies conjugated to peroxidase and subsequently incubated with the peroxidase substrate, ABTS. The resulting colorimetric change is measured spectrophotometrically at 405/490nm.
(§5) The total protein content of each sample was determined for the purpose of normalizing the ELISA values to amount of sample loaded. Microplate assay protocol described in the instruction manual, for (Biorad DC Assay, Cat.#500-0116) section 5.2. The protein concentrations were calculated based upon a linear regression curve.
(§6) d) ELISA assay calculations
(§7) Relative ELISA O.D. readings are determined by subtracting the ELISA plate background O.D. value. No drug control O.D. value (lysis buffer only) was subtracted from sample O.D. value. A correction coefficient (CC), based on the sample protein concentration compared to no drug control, was determined to correct the sample O.D. following subtraction of the background O.D. (BCS O.D.). The fold increase over no drug control is calculated and normalized to the total protein concentration of the samples by multiplying against the correction coefficient.
(§8) To determine the fold increase in ELISA O.D., obtain the following O.D. measurements:
(§9) ELISA plate background--lysis buffer only (EPB);
(§10) no drug treated control--cell sample treated with DMSO (NDT);
(§11) drug treated sample--cell sample treated with a compound of formula 1 (DT) Subtract EPB from NDT (NDT-EPB) and DT (DT-EPB). The fold increase of the treated over the control is then (DT-EPB)/(NDT-EPB).
(§12) To determine the total protein concentration of the samples, obtain the total protein concentration in mg/ul calculated using standard linear regression formula (y=mx+b) based on BSA standards. B=ELISA background. Protein concentration (PC)(mg/ml)=(sample absorbance-b)/x.
(§13) Correction coefficient (cc) is (NDT)(PC)/(DT)(PC).
(§14) Determine fold increase of ELISA (FT) normalized to total PC:
(§15) nDT is DT×cc (which is DT O.D. normalized to PC)
(§16) nNDT is NDT×cc (which is NDT O.D. normalized to PC)
(§17) FI normalized to PC is nDT/nNDT.

RKO cells = assay: Apoptosis: cell death detection by ELISA, RKO (colorectal carcinoma); format: cell-based, human; conditions: for fold induction at 1 µM / fold induction at 3.3 µM / fold induction at 10 µM: Homo sapiens, RKO, read-out: Fold induction of apoptosis compared to no drug control
Protocol: Colorectal carcinoma, human (RKO) obtained from Dr. Bernie Vogelstein, were grown in Gibco's Delbecco Minimum Essential media (DMEM), high glucose, supplemented with sodium pyruvate, 10% FBS and 13 ng/mL gentamicin. Cells were incubated at 37° C., 4.5% CO2 and 95.5% humidified air.
as §1, §2, §3, §4, §5, §6, §7, §8, §9, §10, §11, §12, §13, §14, §15, §16, §17

[1] = tested on: ER+ and ER- breast carcinoma cells; assay: Induction of apoptosis in ER+ and ER- carcinoma cells (statements in words); format: cell-based, human; conditions: 24-48 h
Protocol: as §1, §2, §3
A commercially available apoptosis detection kit, obtained from Boehringer Mannheim (Cat. No. 1544-674), was used as per the directions provided with the kit (Cell Death Detection ELISA). […] The assay measures apoptosis by quantifying the amount of nucleosomal fragmentation from the extracts of cells treated with the test compounds (samples). […] The resulting colorimetric change is measured spectrophotometrically at 405/490nm.
The total protein content of each sample was determined for the purpose of normalizing the ELISA values to amount of sample loaded. […] The protein concentrations were calculated based upon a linear regression curve. […]
as §7, with “No drug control O.D. value (lysis buffer only) was subtracted from sample O.D. value.” left out, “coefficient. […]” for “coefficient.”
To determine the total protein concentration of the samples, obtain the total protein concentration in mg/ul calculated using standard linear regression formula (y=mx+b) based on BSA standards. […] Protein concentration (PC)(mg/ml)=(sample absorbance-b)/x. […]

MDA-435 cells = assay: Apoptosis: cell death detection by ELISA, MDA-435; format: cell-based, human; conditions: for fold induction at 1 µM / fold induction at 3.3 µM / fold induction at 10 µM: Homo sapiens, read-out: Fold induction of apoptosis compared to no drug control
Protocol: ER- breast carcinoma, human (MDA-435) obtained from Dr. Janet Price, MDA Cancer Center, Houston, Tex., were grown in Gibco's RPMI 1640 media supplemented with sodium pyruvate, 10% FBS and 13 ng/mL gentamicin. Cells were incubated at 37° C., 4.5% CO2 and 95.5% humidified air.
as §1, §2, §3, §4, §5, §6, §7, §8, §9, §10, §11, §12, §13, §14, §15, §16, §17

H1299 cells = assay: Apoptosis: cell death detection by ELISA, H1299 (lung large cell carcinoma); format: cell-based; conditions: Homo sapiens, NCI-H1299, read-out: Fold induction of apoptosis compared to no drug control
Protocol: Lung, large cell carcinoma, human (H1299), obtained from ATCC (CRL-5803), were grown in Gibco's Delbecco Minimum Essential media (DMEM), high glucose, supplemented with sodium pyruvate, 10% FBS and 13 ng/mL gentamicin. Cells were incubated at 37° C., 4.5% CO2 and 95.5% humidified air.
as §1, §2, §3, §4, §5, §6, §7, §8, §9, §10, §11, §12, §13, §14, §15, §16, §17

C/C(=C/C=C/C(C)=C/C(=O)Nc1ccc(O)cc1)c1cc(C(F)(F)F)cc(C(F)(F)F)c1 [N-(4-hydroxyphenyl)-(2E,4E,6Z)-7-[3,5-bis(trifluoromethyl)phenyl]-3,7-dimethyl-2,4,6-heptatrienamide]
fold induction at 1 µM (ZR-75-1 cells; ZR-75-1, 24 h, 24 hrs): 2 | fold induction at 3.3 µM (ZR-75-1 cells; ZR-75-1, 24 h, 24 hrs): 2 | fold induction at 10 µM (ZR-75-1 cells; ZR-75-1, 24 h, 24 hrs): 3 | fold induction at 1 µM (ZR-75-1 cells; ZR-75-1, 48 h, 48 hrs): 2 | fold induction at 3.3 µM (ZR-75-1 cells; ZR-75-1, 48 h, 48 hrs): 19 | fold induction at 10 µM (ZR-75-1 cells; ZR-75-1, 48 h, 48 hrs): 15 | fold induction at 1 µM (ZR-75-1 cells; ZR-75-1, 72 h, 72 hrs): 2 | fold induction at 3.3 µM (ZR-75-1 cells; ZR-75-1, 72 h, 72 hrs): 69 | fold induction at 10 µM (ZR-75-1 cells; ZR-75-1, 72 h, 72 hrs): 67 | Induction of apoptosis (in words) (ZR-75-1 cells; after 48 hours): induces significant apoptosis | fold induction at 1 µM (RKO cells; 24 hrs): 2 | fold induction at 3.3 µM (RKO cells; 24 hrs): 14 | fold induction at 10 µM (RKO cells; 24 hrs): 21 | fold induction at 1 µM (RKO cells; 48 hrs): 4 | fold induction at 3.3 µM (RKO cells; 48 hrs): 5 | fold induction at 10 µM (RKO cells; 48 hrs): 23 | fold induction at 1 µM (RKO cells; 72 hrs): 1 | fold induction at 3.3 µM (RKO cells; 72 hrs): 1 | fold induction at 10 µM (RKO cells; 72 hrs): 15 | Induction of apoptosis (in words) (RKO cells; after 24 hours): induces significant apoptosis | Induction of apoptosis (in words) [1]: significant induction of apoptosis | fold induction at 1 µM (MDA-435 cells; MDA435, 24 h, 24 hrs): 3 | fold induction at 3.3 µM (MDA-435 cells; MDA435, 24 h, 24 hrs): 6 | fold induction at 10 µM (MDA-435 cells; MDA435, 24 h, 24 hrs): 6 | fold induction at 1 µM (MDA-435 cells; MDA435, 48 h, 48 hrs): 3 | fold induction at 3.3 µM (MDA-435 cells; MDA435, 48 h, 48 hrs): 10 | fold induction at 10 µM (MDA-435 cells; MDA435, 48 h, 48 hrs): 16 | fold induction at 1 µM (MDA-435 cells; MDA435, 72 h, 72 hrs): 4 | fold induction at 3.3 µM (MDA-435 cells; MDA435, 72 h, 72 hrs): 12 | fold induction at 10 µM (MDA-435 cells; MDA435, 72 h, 72 hrs): 34 | Induction of apoptosis (in words) (MDA-435 cells; after 24 hours): induces significant apoptosis | fold induction at 1 µM (H1299 cells; 24 hrs): 1 | fold induction at 3.3 µM (H1299 cells; 24 hrs): 3 | fold induction at 10 µM (H1299 cells; 24 hrs): 2 | fold induction at 1 µM (H1299 cells; 48 hrs): 1 | fold induction at 3.3 µM (H1299 cells; 48 hrs): 10 | fold induction at 10 µM (H1299 cells; 48 hrs): 12 | fold induction at 1 µM (H1299 cells; 72 hrs): 1 | fold induction at 3.3 µM (H1299 cells; 72 hrs): 17 | fold induction at 10 µM (H1299 cells; 72 hrs): 20
